# In US7132409B2, “Adenosine derivatives and use thereof” (Toa Eiyo Ltd., priority 2000, dated 2006):
# Where two headings read alike, the source gives them in different places.
# What was measured:
# [1] = Test Example 2: saturation solubility in isotonic borate buffer (HPLC); details: for solubility at 6 h: isotonic borate buffer, 20 °C, pH 7, aqueous buffer, thermodynamic from solid
# Experimental: (§1) Each of the test compounds was dispersed in an isotonic borate buffer (pH 7.0). The resultant mixture was shaken at 20° C. for 6 hours and then centrifuged. The concentration of the test compound in the supernatant was measured through HPLC for calculation of saturation solubility of the compound.
# (§2) Detector: UV absorptiometer (wavelength: 270 nm)
# (§3) Column: ODS column (inner diameter 4.6 mm, length 15 cm)
# (§4) Mobile phase: An acetonitrile/triethylammonium acetate buffer (pH 7) mixture
# [2] = tested on: ocular tension of Japanese white rabbits; assay: Test Example 1: effect of lowering ocular tension after instillation in rabbit eyes; type: in vivo; details: 0.1% solution, 50 μL instilled to one eye; for AUC (area under the curve of time versus change in difference in ocular tension, treated eye vs eye drop base eye): up to 480 min
# Experimental: Each of the mentioned compounds was dissolved in saline containing polysorbate 80 (hereinafter the saline will be referred to as “eye drop base A”) or in a borate buffer (pH 7.0) containing polysorbate 80 (hereinafter the solution will be referred to as “eye drop base B”) (polysorbate 80 content of each base: 5 mg/mL).
# Japanese white rabbits (male; Kitayama Labes Co., Ltd.) (weight: 2.7–3.9 kg) were employed in the test for measuring ocular tension. The rabbits were retained in a box-type fixation apparatus during the test.
# The ocular tension of each rabbit was measured by use of a Model 30 Classic Pneumatonometer (product of Mentor) without anesthesia. Before the ocular tension was measured, 0.4% oxybuprocaine hydrochloride (Benoxil 0.4% eye drop solution, product of Santen Pharmaceutical Co., Ltd.) was instilled into the eyes of each rabbit, to thereby anesthetize the surface of the cornea. The ocular tension of each rabbit was measured several times at predetermined intervals. Three measurements of ocular tension, as measured when a constant value was reached, were averaged, and the average value was employed as representing the ocular tension.
# A 0.1% solution of each test compound (50 μL) was instilled to one eye of each of the respective rabbits, and simultaneously the eye drop base (50 μL) was instilled to the other eye. The ocular tensions of both eyes were measured 60 minutes before instillation of the test compound; 0 minute immediately before instillation; and 30, 60, 90, 120, 150, 180, 240, 300, 360, 420, and 480 minutes after instillation. Four to six rabbits were employed for each test compound. For control, each eye drop base was instilled to both eyes of rabbits, and the ocular tension thereof was measured in a manner similar to that described above.
# For each test compound, the effect of lowering ocular tension was evaluated on the basis of the following values: the area under the curve of time versus change in difference between the ocular tension of the eye to which the test compound was instilled and that of the eye to which the eye drop base was instilled (hereinafter the area will be abbreviated as AUC (mmHg•min)); and the maximum value of difference between the ocular tension of the eye to which the test compound was instilled and that of the eye to which the eye drop base was instilled (hereinafter the value will be abbreviated as Emax (mmHg)).
# blood flow in the retina = assay: Effects on blood vessel diameter and blood flow in the retina of rabbits; type: in vivo
# optic nerve failure = assay: Model of retina failure induced through reperfusion after transient ischemia in rat; type: in vivo
# [3] = pH 7
# Experimental: as §1, §2, §3, §4
# [4] = eye drop base B (borate buffer pH 7.0 with polysorbate 80)
# [5] = eye drop base A (saline with polysorbate 80)
SMILES,solubility at 6 h [1],"Emax (maximum difference in ocular tension, treated eye vs eye drop base eye) [2, 4]","AUC (area under the curve of time versus change in difference in ocular tension, treated eye vs eye drop base eye) [2, 4]","Emax (maximum difference in ocular tension, treated eye vs eye drop base eye) [2, 5]","AUC (area under the curve of time versus change in difference in ocular tension, treated eye vs eye drop base eye) [2, 5]",other results
"N#CCCCCC#Cc1nc(N)c2ncn([C@@H]3O[C@H](CO)[C@@H](O)[C@H]3O)c2n1 [Compound 1, 2-(6-cyano-1-hexyn-1-yl)adenosine]",16600 µg/mL,−4.3 mmHg,−1303.1 mmHg · min,,,melting point: 91 to 94 °C; effects of promoting vasodilatation and blood flow in the retina (blood flow in the retina): particularly excellent effects of promoting vasodilatation and blood flow in the retina; effects of protecting optic nerve failure (optic nerve failure): particularly excellent effects of protecting optic nerve failure
"N#CCCCCCC#Cc1nc(N)c2ncn([C@@H]3O[C@H](CO)[C@@H](O)[C@H]3O)c2n1 [Referential Compound 2, 2-(7-cyano-1-heptyn-1-yl)adenosine]",,−2.6 mmHg,−844.5 mmHg · min,,,
"N#CCCCC#Cc1nc(N)c2ncn([C@@H]3O[C@H](CO)[C@@H](O)[C@H]3O)c2n1 [Referential Compound 1, 2-(5-cyano-1-pentyn-1-yl)adenosine]",,−3.0 mmHg,−584.0 mmHg · min,,,
"Nc1nc(C#CCCCCN2C(=O)c3ccccc3C2=O)nc2c1ncn2[C@@H]1O[C@H](CO)[C@@H](O)[C@H]1O [Referential Compound 5, 2-(6-phthalimidyl-1-hexyn-1-yl)adenosine]",700 µg/mL,,,−6.3 mmHg,−1471.0 mmHg · min,
"CCCCC#Cc1nc(N)c2ncn([C@@H]3O[C@H](C(=O)NC)[C@@H](O)[C@H]3O)c2n1 [Referential Compound 6, 2-(1-hexyn-1-yl)adenosine-4′-methylcarboxamide]",,,,−6.0 mmHg,−1838.3 mmHg · min,"Saturation solubility ([1]; isotonic borate buffer pH 7.0, shaken at 20° C. for 6 hours): 500 µg/mL"
"CCCCCCC#Cc1nc(N)c2ncn([C@@H]3O[C@H](CO)[C@@H](O)[C@H]3O)c2n1 [Referential Compound 4, 2-(1-octyn-1-yl)adenosine]",300 µg/mL,,,−4.2 mmHg,−1093.5 mmHg · min,
"Nc1nc(C#CC2CCCC2)nc2c1ncn2[C@@H]1O[C@H](CO)[C@@H](O)[C@H]1O [Referential Compound 3, 2-cyclopentylethynyladenosine]",,−4.4 mmHg,−1532.7 mmHg · min,,,Saturation solubility [3]: 1400 µg/mL
"N#CCCCCC#Cc1nc(N)c2ncn([C@@H]3O[C@H](COP(=O)([O-])[O-])[C@@H](O)[C@H]3O)c2n1.[Na+].[Na+] [Compound 2, disodium 2-(6-cyano-1-hexyn-1-yl)adenosine 5′-monophosphate]",> 200000 µg/mL,−6.0 mmHg,−1965.0 mmHg · min,,,
